Data set [1] has as its system c-kit2 (SEQ ID NO: 3) DNA G4. Nature of the data set: Photoluminescence test of HMPQ with c-kit2 G4 (turn-on, Stern-Volmer plot, LOD). The class given is binding. The protocol: Single DNA nucleotides were purchased from Integrated DNA Technologies. The DNA sample at 100 μM (single strands) was then re-annealed by heating to 95° C. for 15 min, followed by slow cooling to room temperature overnight in an annealing buffer of 70 mM KCl and 20 mM potassium phosphate (pH 7.0). The final NMR samples contained 0.1 mM DNA or RNA in 20 mM potassium phosphate buffer (pH 7.0) and 70 mM KCl.
The intriguing conformational change observed in HMPQ led to exceptional emission performance, prompting us to explore its application as a fluorescent probe. The inherent two-planar aromatic rings of HMPQ offer the potential for interaction with the guanine tetrad or conjugation with side chains of novel nucleic acid secondary structures, G4s^45,46. To evaluate the binding affinity of HMPQ, a series of photoluminescence tests was conducted using various G4 samples introduced with HMPQ (Table 5).
To delve deeper into the sensitivity of HMPQ as a fluorescent G4 probe, the PL spectra of HMPQ (0.15 mM) were obtained with varying concentrations of c-kit2, as illustrated in FIG. 5B. […] According to the equation for limit of detection (LOD), LOD=3 SB/m (SB=the standard deviation of the repeated 10 blank measurements, and m=the slope of the relative intensity over […]), it was calculated as 28.7 nM^49,50. […]

In a further data set the test system is c-kit2 G4. Nature of the data set: CD spectroscopy of c-kit2 G4 with HMPQ. Format: binding. The method, then:
(§1) CD spectra of G4s with HMPQ were recorded on a Chirascan CD spectrometer at room temperature from 220 nm to 320 nm under liquid mode. A 1 mm-path-length quartz cuvette was used with a 400 μL sample. Each G4 sample was prepared at the same concentration of 15 μM. The compound was mixed with G4s at a molar ratio of 1:10. Each test was scanned three times, and the background of the buffer was subtracted.

The test system of another data set is c-myc G4. Nature of the data set: CD spectroscopy of c-myc G4 with HMPQ. Format: binding. The protocol: as §1
The next data set concerns c-kit1 G4. Briefly: CD spectroscopy of c-kit1 G4 with HMPQ. Format: binding. The method, then: as §1
Data set [2] relates to immortalized mouse hippocampal neuronal cells HT22. Nature of the data set: Cytotoxicity assay (thiazolyl blue tetrazolium bromide), HT22. Format: cell-based. The settings on record: even at 100 μM, 24 h. The protocol: (§2) HEK293 and HeLa cells were purchased from ATCC, and HT22 cells were purchased from Sigma-Aldrich. They were cultured in Dulbecco's modified Eagle's medium (Thermo Fisher Scientific, 11965092) with 10% fetal bovine serum (Thermo Fisher Scientific, 26140079) and 1% penicillin-streptomycin at 37° C. in a humidified incubator with 5% CO2. After 1 day of cell culture, cells were seeded onto 96-well plates with a density of 5000 cells in each well and cultured for another 24 h. Then, HMPQ with different concentrations was added and treated for 24 h. After incubating with 20 μL of thiazolyl blue tetrazolium bromide (5 mg/mL in PBS buffer; Sigma-Aldrich) for 4 h, supernatants were removed, and 100 μL of DMSO was added to dissolve formazan. After shaking for 5 min in darkness, a Multiskan FC microplate was used to measure absorbance at 570 nm.

Another data set relates to G4s in HeLa cells. Briefly: Confocal cell imaging, co-localization with G4-specific antibody BG4. Format: cell-based, human. The protocol: HeLa cells were seeded onto a 12-well plate with coverslips at 37° C. and 5% CO2 for 1 day and incubated with HMPQ at 10 μM overnight. The next day, cells were fixed with 4% paraformaldehyde for 15 min at room temperature and then permeabilized with 0.2% Triton X-100 in PBS for another 10 min. G4-specific antibodies BG4 (Sigma-Aldrich, cat. no. MABE 1126) were added at 1:500 dilution for staining and incubated overnight at 4° C. Cells were washed three times with PBS and then incubated with secondary antibodies (Alexa 647 anti-rabbit for G4) at 1:1000 dilution for 1 h at room temperature. After washing the cells with PBS three times to remove excess secondary, the cells were incubated with DAPI for 5 min and washed with PBS once. The cells on slides were then air dried, mounted onto a Hydromount medium, and observed using a Leica SP8 confocal microscope.

Data set [3] deals with regular double-stranded or single-stranded, or hairpin-structure nucleotides. Nature of the data set: Photoluminescence and NMR titration with non-G4 oligonucleotides. Format: binding. The text has this:
Conventional fluorescent probes rely on hydrophobic aromatic rings and π-conjugated chromophores^22. However, their tendency to aggregate in hydrophobic pockets upon binding to nucleic acid strands in aqueous environments often results in the quenching of emitted light. Conversely, AIEgens excel in aqueous media, evading aggregation-caused quenching. […] In embodiments, binding to G4s restricts the mobility of HMPQ molecules, leading to a significant enhancement in fluorescence intensity. CD spectra confirm that HMPQ maintains the original conformation of G4s and its high biocompatibility enables visualization of G4s within the cellular nucleus.
To verify whether the compounds interacted with G4 DNA, we performed NMR titration experiments by running 1D ^1H NMR spectra at 25° C. All compounds were dissolved in isotope-labelled d6-DMSO (from Sigma-Aldrich) at about 50 mM concentration as stock solutions. To avoid chemical shifts of G4 samples resulting from d6-DMSO addition, 10 μL of d6-DMSO was added into 500 μL of 0.1 mM G4 solution in the NMR buffer (20 mM potassium phosphate buffer and 70 mM KCl, pH 7.0, 10% D2O). Then, a 1D ^1H-NMR spectrum was obtained as a reference. […]
In addition to fluorescence spectroscopy tests, we performed NMR titration as another prevalent method for assessing binding affinity. […]

Another data set concerns HEK293 cells. Nature of the data set: Cytotoxicity assay (thiazolyl blue tetrazolium bromide), HEK293. The class given is cell-based, human. The settings on record: even at 100 μM, 24 h. The protocol:
as §2

Another data set deals with HeLa cells. Briefly: Cytotoxicity assay (thiazolyl blue tetrazolium bromide), HeLa. The class given is cell-based, human. The settings on record: even at 100 μM, 24 h. The method, then:
as §2

Data set [4] is described as follows: Absolute quantum yield of HMPQ in different states. The settings on record: for Quantum Yield (%): excitation 320 nm. The class given is physicochemical. The protocol:
Streptomyces chrestomyceticus BCC24770 was acquired from the Thailand Bioresource Research Centre. All oligonucleotides used were bought from Integrated DNA Technologies company (Singapore). NMR spectra were recorded on a 500 M or 800 M Varian spectrometer at 25° C. HRMS data were recorded on a Xevo G2-XS QTOF mass spectrometer from Water's. HPLC analysis or preparation was performed using a Waters HPLC system (Waters 2695 Separations Module; Milford, USA) and monitored under a Waters 2998 Photodiode Array Detector. Semi-preparative HPLC was performed using a Phenomenex Luna C18 column (250 mm×10 mm in size) and designed for a particle size of 5 μm. Single-crystal XRD data were collected on a Rigaku-Oxford Diffraction Supernova Dual Atlas diffractometer. Crystal photos were taken under Nikon ECLIPSE Ts2R fluorescence microscopes. CD spectra were collected using Chirascan Circular Dichroism (CD) Spectrometers. UV-vis absorption spectra were obtained under a Shimadzu UV-2600 spectrophotometer (medium scanning rate and quartz cuvettes of 2 cm path length). Photoluminescence spectra were recorded on an Edinburgh FS5 Spectrofluorometer. Absolute quantum yield was collected using an integrating sphere on a Hamamatsu Quantum Yield Spectrometer C11347 Quantaurus. All digital photographs were recorded on a Canon EOS 7D camera. A Leica SP8 confocal microscope was used for cell imaging.
After observing the strong emission of crystalline-state HMPQ, we studied its photophysical properties in a polymer matrix. HMPQ was dissolved and blended with the common polymer poly(methyl methacrylate) (PMMA)^39. A series of films was prepared by coating mixtures with varying weight percentages (wt %) of HMPQ onto a quartz substrate. The resulting films, containing different wt % of HMPQ, were analysed to measure their photoluminescence (PL) and quantum yield (QY) (FIGS. 3A-3D and 14, Table 2).

The values that follow come from patent US20250250613A1, “DISCOVERY OF BACTERIAL AIEGEN THAT LIGHTS UP SPECIFIC G-QUADRUPLEXES” (Southern Marine Science and Engineering Guangdong …, priority 2024, published 2025).

Regarding `CCC(=O)c1ccc(OC)c(-c2nc3ccccc3c(=O)[nH]2)c1O` [HMPQ, 2-(2-hydroxy-6-methoxy-3-propionylphenyl)quinazolin-4(3H)-one], the “fluorescence enhancement at 497 nm upon interaction with c-kit2” value in data set [1] (20 mM KH2PO4 buffer, 70 mM KCl, pH 7.0) is reported as “around 300 fold”. The same compound yielded a Stern-Volmer constant m in data set [1] (HMPQ 0.15 mM, c-kit2 0 μM to 50 μM) of 1.94e+06 M⁻¹. Also, the “effect on original G4 conformation (CD spectrum)” value with c-kit2 G4, in the data set with c-myc G4 and with c-kit1 G4 was “non-disruptive” in each case. For the same compound, the cytotoxicity entry (in data set [2]; with HEK293 cells; with HeLa cells) was “no cytotoxicity” in each case. Moreover, the “penetration of the cell nucleus” value with G4s in HeLa cells (BG4 as control) is reported as “efficiently penetrated the cell nucleus”. The Overlap coefficient in the data set on G4s in HeLa cells (FIG. 6C legend) is 0.943. In addition, the “overlap coefficient with BG4” value in the data set on G4s in HeLa cells (HMPQ 10 μM overnight) worked out at 94.3%. The “interaction with non-G4 nucleotides” value in data set [3] is reported as “no interaction”. In addition, in [4] (30 wt % film (HMPQ in PMMA)), the QY is listed as 30.5%. For the same compound, the “Quantum Yield (%)” value was found to be 25.5% in data set [4] (Film, 1 wt. % HMPQ in PMMA); 27.9% in data set [4] (Film, 5 wt. % HMPQ in PMMA); 29.4% in data set [4] (Film, 10 wt. % HMPQ in PMMA); 30.5% in data set [4] (Film, 20 wt. % HMPQ in PMMA); 30.0% in [4] (Film, 40 wt. % HMPQ in PMMA); 27.1% in data set [4] (Film, 60 wt. % HMPQ in PMMA). For the same compound, the “Quantum Yield (%)” value in data set [4] (Film, 100 wt. % HMPQ) turned out to be 23.0%; in data set [4] (In DMSO Solution, 10^−5 M), 6.7%; in [4] (In THF Solution, 10^−5 M), 2.4%; in [4] (Solid Powder), 3.9%.
